Test results from patent US11084829B2, “Ubiquitin-specific-processing protease 7 (USP7) modulators and uses thereof” (RAPT THERAPEUTICS, INC., priority 2018, dated 2021).

target: USP7 (Homo sapiens, UniProt Q93009); assay: USP7 inhibitory potency (IC50); assay type: biochemical
Description: Activity for compounds described herein is provided in Table 2, wherein potency levels are provided as follows: (Potency: USP7 IC50: A<0.01 μM; B=0.01-0.1 μM; C=>0.1 μM.

Chain of USP7 (Q93009 whole entry): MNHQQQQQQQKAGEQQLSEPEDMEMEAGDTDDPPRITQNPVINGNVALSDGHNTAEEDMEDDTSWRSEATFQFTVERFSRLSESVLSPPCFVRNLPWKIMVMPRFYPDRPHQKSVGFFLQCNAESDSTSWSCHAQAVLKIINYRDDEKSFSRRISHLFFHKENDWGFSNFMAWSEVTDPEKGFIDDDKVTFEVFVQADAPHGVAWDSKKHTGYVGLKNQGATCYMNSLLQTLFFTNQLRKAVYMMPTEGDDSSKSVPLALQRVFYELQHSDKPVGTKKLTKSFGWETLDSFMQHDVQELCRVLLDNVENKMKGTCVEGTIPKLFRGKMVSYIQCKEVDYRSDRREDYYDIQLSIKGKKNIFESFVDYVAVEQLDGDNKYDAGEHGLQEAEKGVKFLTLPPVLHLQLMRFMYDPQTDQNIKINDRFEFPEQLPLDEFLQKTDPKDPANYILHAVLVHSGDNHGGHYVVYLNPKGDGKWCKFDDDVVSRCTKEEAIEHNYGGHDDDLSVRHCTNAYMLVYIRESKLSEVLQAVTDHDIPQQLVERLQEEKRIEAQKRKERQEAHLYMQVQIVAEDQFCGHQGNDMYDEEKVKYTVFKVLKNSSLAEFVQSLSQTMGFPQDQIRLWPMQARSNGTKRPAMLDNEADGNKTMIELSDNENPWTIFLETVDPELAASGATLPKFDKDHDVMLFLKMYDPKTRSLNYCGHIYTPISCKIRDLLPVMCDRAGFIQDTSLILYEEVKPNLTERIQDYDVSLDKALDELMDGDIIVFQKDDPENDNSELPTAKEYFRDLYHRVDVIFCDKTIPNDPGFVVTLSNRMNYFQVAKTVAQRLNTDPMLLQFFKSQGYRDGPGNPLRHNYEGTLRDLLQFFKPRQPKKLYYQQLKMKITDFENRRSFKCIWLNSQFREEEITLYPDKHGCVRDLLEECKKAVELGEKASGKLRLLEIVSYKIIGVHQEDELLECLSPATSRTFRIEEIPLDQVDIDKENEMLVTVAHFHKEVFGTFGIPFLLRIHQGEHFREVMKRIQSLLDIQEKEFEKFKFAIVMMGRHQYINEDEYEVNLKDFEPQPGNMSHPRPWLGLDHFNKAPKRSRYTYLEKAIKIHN

First: Cc1cc(Cl)cc(-c2ccnc3cc(CN4C(=O)CCC4=O)sc23)c1CN1C[C@@H](C)NC[C@@H]1C [Example 44, 1-((7-(5-chloro-2-(((2S,5R)-2,5-dimethylpiperazin-1-yl)methyl)-3-methylphenyl)thieno[3,2-b]pyridin-2-yl)methyl)pyrrolidine-2,5-dione]
Second: Cc1cc(Cl)cc(-c2ccnc3cc(CN4C(=O)CCCC4C(F)(F)F)sc23)c1CC1CNCCO1 (stereo not shown) [Example 122, 1-((7-(5-chloro-3-methyl-2-(morpholin-2-ylmethyl)phenyl)thieno[3,2-b]pyridin-2-yl)methyl)-6-(trifluoromethyl)piperidin-2-one]
The IC50 of the first is lower: less than 10 nM for the first, greater than 100 nM for the second.

Going from `Cc1cc(Cl)cc(-c2ncnc3cc(CN4C(=O)CCCC4=O)sc23)c1CN1C[C@@H](C)NC[C@@H]1C` [Example 69, 1-((4-(5-chloro-2-(((2S,5R)-2,5-dimethylpiperazin-1-yl)methyl)-3-methylphenyl)thieno[3,2-d]pyrimidin-6-yl)methyl)piperidine-2,6-dione] to `Cc1cc(Cl)cc(-c2ncnc3cc(Cn4cccc4C#N)sc23)c1C[C@@H]1CNCC(C)(C)O1` [Example 239, (R)-1-((4-(5-chloro-2-((6,6-dimethylmorpholin-2-yl)methyl)-3-methylphenyl)thieno[3,2-d]pyrimidin-6-yl)methyl)-1H-pyrrole-2-carbonitrile], the IC50 rises from less than 10 nM to greater than 100 nM. The first is the more potent here.

“3-((7-(3,5-dichloro-2-(((2S,6S)-2,6-dimethylpiperazin-1-yl)methyl)phenyl)thieno[3,2-b]pyridin-2-yl)methyl)-1-methyldihydropyrimidine-2,4(1H,3H)-dione [Example 93]” and `Cc1cc(Cl)cc(-c2ncnc3cc(CN4C(=O)CN(C)C4=O)sc23)c1CN1C[C@@H](C)NC[C@@H]1C` [Example 80, 3-((4-(5-chloro-2-(((2S,5R)-2,5-dimethylpiperazin-1-yl)methyl)-3-methylphenyl)thieno[3,2-d]pyrimidin-6-yl)methyl)-1-methylimidazolidine-2,4-dione] cannot be ordered by IC50: less than 10 nM for the first, less than 10 nM for the second.

`Cc1cc(Cl)cc(-c2ccnc3cc(CN4C(=O)C5CC5C4=O)sc23)c1CC1CNCC2(CCC2)O1` (stereo not shown) [Example 131, 3-((7-(2-((5-oxa-8-azaspiro[3.5]nonan-6-yl)methyl)-5-chloro-3-methylphenyl)thieno[3,2-b]pyridin-2-yl)methyl)-3-azabicyclo[3.1.0]hexane-2,4-dione] and `Cc1cc(Cl)cc(-c2ncnc3cc(CN4C(=O)C5CC5C4=O)sc23)c1CC1CNCC(C)(C)O1` (stereo not shown) [Example 154, 3-((4-(5-chloro-2-((6,6-dimethylmorpholin-2-yl)methyl)-3-methylphenyl)thieno[3,2-d]pyrimidin-6-yl)methyl)-3-azabicyclo[3.1.0]hexane-2,4-dione] cannot be ordered by IC50: less than 10 nM for the first, less than 10 nM for the second.

`Cc1cc(Cl)cc(-c2ncnc3cc(CN4C(=O)C5CC5C4=O)sc23)c1CN1CCN(C)C[C@@H]1C` (stereo partly drawn) [Example 55, 3-((4-(5-chloro-2-(((S)-2,4-dimethylpiperazin-1-yl)methyl)-3-methylphenyl)thieno[3,2-d]pyrimidin-6-yl)methyl)-3-azabicyclo[3.1.0]hexane-2,4-dione] and `Cc1cc(Cl)cc(-c2ncnc3cc(CN4C(=O)CN(CCCC(=O)O)C4=O)sc23)c1C[C@@H]1CNCCO1` [Example 264, (R)-4-(3-((4-(5-chloro-3-methyl-2-(morpholin-2-ylmethyl)phenyl)thieno[3,2-d]pyrimidin-6-yl)methyl)-2,4-dioxoimidazolidin-1-yl)butanoic acid] fall in the same range of IC50: 10 to 100 nM for the first, 10 to 100 nM for the second.

`CN1CCC(=O)N(Cc2cc3nccc(-c4cc(Cl)cc(Cl)c4CC4CNCCO4)c3s2)C1=O` (stereo not shown) [Example 130, 3-((7-(3,5-dichloro-2-(morpholin-2-ylmethyl)phenyl)thieno[3,2-b]pyridin-2-yl)methyl)-1-methyldihydropyrimidine-2,4(1H,3H)-dione] and `Cc1cc(Cl)cc(-c2ccnc3cc([C@H](C)N4C(=O)C5C(C4=O)C5(C)C)sc23)c1C[C@@H]1CNCCO1` (stereo partly drawn) [Example 133, 3-((S)-1-(7-(5-chloro-3-methyl-2-(((R)-morpholin-2-yl)methyl)phenyl)thieno[3,2-b]pyridin-2-yl)ethyl)-6,6-dimethyl-3-azabicyclo[3.1.0]hexane-2,4-dione] cannot be ordered by IC50: less than 10 nM for the first, less than 10 nM for the second.

Going from `Cc1cc(Cl)cc(-c2ncnc3cc(CN4C(=O)CC[C@@H]4C(=O)O)sc23)c1C[C@@H]1CNCC(C)(C)O1` [Example 225, (R)-1-((4-(5-chloro-2-(((R)-6,6-dimethylmorpholin-2-yl)methyl)-3-methylphenyl)thieno[3,2-d]pyrimidin-6-yl)methyl)-5-oxopyrrolidine-2-carboxylic acid] to `Cc1cc(Cl)cc(-c2ncnc3cc(CN4C(=O)C5CCCCN5C4=O)sc23)c1CC1CNCCO1` (stereo not shown) [Example 184, 2-((4-(5-chloro-3-methyl-2-(morpholin-2-ylmethyl)phenyl)thieno[3,2-d]pyrimidin-6-yl)methyl)tetrahydroimidazo[1,5-a]pyridine-1,3(2H,5H)-dione], the IC50 falls from greater than 100 nM to less than 10 nM.

`Cc1cc(Cl)cc(-c2ncnc3cc(CN4C(=O)OC[C@@H]4CO)sc23)c1C[C@@H]1CNCC(C)(C)O1` [Example 268, (S)-3-((4-(5-chloro-2-(((R)-6,6-dimethylmorpholin-2-yl)methyl)-3-methylphenyl)thieno[3,2-d]pyrimidin-6-yl)methyl)-4-(hydroxymethyl)oxazolidin-2-one] and `Cc1cc(Cl)cc(-c2ccnc3cc(CN4C(=O)C5CC5C4=O)sc23)c1C[C@@H]1CN[C@@H](C)CO1` (stereo partly shown) [Example 98, 3-((7-(5-chloro-3-methyl-2-((5-methylmorpholin-2-yl)methyl)phenyl)thieno[3,2-b]pyridin-2-yl)methyl)-3-azabicyclo[3.1.0]hexane-2,4-dione] cannot be ordered by IC50: less than 10 nM for the first, less than 10 nM for the second.

`Cc1cc(Cl)cc(-c2ccnc3cc(CN4C(=O)CCC4=O)sc23)c1CC1CNCC(C)(C)O1` (stereo not shown) [Example 119, 1-((7-(5-chloro-2-((6,6-dimethylmorpholin-2-yl)methyl)-3-methylphenyl)thieno[3,2-b]pyridin-2-yl)methyl)pyrrolidine-2,5-dione] and `Cc1cc(Cl)cc(-c2ncnc3cc(CN4C(=O)CN(CC(F)(F)F)C4=O)sc23)c1CN1[C@@H](C)CNC[C@@H]1C` [Example 272, 3-((4-(5-chloro-2-(((2S,6S)-2,6-dimethylpiperazin-1-yl)methyl)-3-methylphenyl)thieno[3,2-d]pyrimidin-6-yl)methyl)-1-(2,2,2-trifluoroethyl)imidazolidine-2,4-dione] cannot be ordered by IC50: less than 10 nM for the first, less than 10 nM for the second.

Compared with `Cc1cc(Cl)cc(-c2ncnc3cc(Cn4ccc(=O)[nH]c4=O)sc23)c1C[C@@H]1CNCC(C)(C)O1` [Example 267, (R)-1-((4-(5-chloro-2-((6,6-dimethylmorpholin-2-yl)methyl)-3-methylphenyl)thieno[3,2-d]pyrimidin-6-yl)methyl)pyrimidine-2,4(1H,3H)-dione], `C[C@H]1CNCCN1Cc1ccc(Cl)cc1-c1ncnc2cc(CN3C(=O)C4CC4C3=O)sc12` (stereo partly drawn) [Example 64, 3-((4-(5-chloro-2-(((S)-2-methylpiperazin-1-yl)methyl)phenyl)thieno[3,2-d]pyrimidin-6-yl)methyl)-3-azabicyclo[3.1.0]hexane-2,4-dione] is higher in IC50: less than 10 nM for the first, 10 to 100 nM for the second. The first is the more potent here.

`Cc1cc(Cl)cc(-c2ncnc3cc(CN4C(=O)C5C(C4=O)C5(C)C)sc23)c1CC1CNCCO1` (stereo not shown) [Example 151, 3-((4-(5-chloro-3-methyl-2-(morpholin-2-ylmethyl)phenyl)thieno[3,2-d]pyrimidin-6-yl)methyl)-6,6-dimethyl-3-azabicyclo[3.1.0]hexane-2,4-dione] and `Cc1cc(Cl)cc(-c2ncnc3cc(CN4C(=O)NC(C(C)C)C4=O)sc23)c1C[C@@H]1CNCCO1` (stereo partly drawn) [Example 246, 3-((4-(5-chloro-3-methyl-2-(((R)-morpholin-2-yl)methyl)phenyl)thieno[3,2-d]pyrimidin-6-yl)methyl)-5-isopropylimidazolidine-2,4-dione] cannot be ordered by IC50: less than 10 nM for the first, less than 10 nM for the second.

`Cc1cc(Cl)cc(-c2ccnc3cc(CN4C(=O)CCC4=O)sc23)c1CN1C[C@H](C)N[C@@H](C)C1` [Example 25, 1-((7-(5-chloro-2-(((3 S,5 S)-3,5-dimethylpiperazin-1-yl)methyl)-3-methylphenyl)thieno[3,2-b]pyridin-2-yl)methyl)pyrrolidine-2,5-dione] and `Cc1cc(Cl)cc(-c2ncnc3cc(CN4C(=O)C5CC5C4=O)sc23)c1CC1CNCC2(CCC2)O1` (stereo not shown) [Example 207, 3-((4-(2-((5-oxa-8-azaspiro[3.5]nonan-6-yl)methyl)-5-chloro-3-methylphenyl)thieno[3,2-d]pyrimidin-6-yl)methyl)-3-azabicyclo[3.1.0]hexane-2,4-dione] cannot be ordered by IC50: less than 10 nM for the first, less than 10 nM for the second.

`Cc1cc(Cl)cc(-c2ncnc3cc(CN4C(=O)C5CC5C4=O)sc23)c1C[C@@H]1CNC[C@@H](C)O1` (stereo partly drawn) [Example 155, 3-((4-(5-chloro-3-methyl-2-(((2R,6R)-6-methylmorpholin-2-yl)methyl)phenyl)thieno[3,2-d]pyrimidin-6-yl)methyl)-3-azabicyclo[3.1.0]hexane-2,4-dione] and `CN1CCC(=O)N(Cc2cc3ncnc(-c4cc(Cl)cc(Cl)c4CC4CNCC(C)(C)O4)c3s2)C1=O` (stereo not shown) [Example 210, 3-((4-(3,5-dichloro-2-((6,6-dimethylmorpholin-2-yl)methyl)phenyl)thieno[3,2-d]pyrimidin-6-yl)methyl)-1-methyldihydropyrimidine-2,4(1H,3H)-dione] cannot be ordered by IC50: less than 10 nM for the first, less than 10 nM for the second.

First: Cc1cc(Cl)cc(-c2ccnc3cc(CN4C(=O)CCC4=O)sc23)c1CN1CCNCC1 [Example 5, 1-((7-(5-chloro-3-methyl-2-(piperazin-1-ylmethyl)phenyl)thieno[3,2-b]pyridin-2-yl)methyl)pyrrolidine-2,5-dione]
Second: Cc1cc(Cl)cc(-c2ccnc3cc(CN4C(=O)C5CC5C4=O)sc23)c1CC1CNCCOC1 (stereo not shown) [Example 112, 3-((7-(2-((1,4-oxazepan-6-yl)methyl)-5-chloro-3-methylphenyl)thieno[3,2-b]pyridin-2-yl)methyl)-3-azabicyclo[3.1.0]hexane-2,4-dione]
The IC50 of the first is higher: 10 to 100 nM for the first, less than 10 nM for the second. The second is the more potent here.
